Active and inactive are the calls of the source.
How the values were obtained:
[1] = cells; format: functional, cell-based
[2] = target: Peroxisome proliferator-activated receptor gamma/Nuclear receptor coactivator 2 (Homo sapiens, UniProt P37231); format: functional;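 also: agonist potency for raising coactivator recruitment to the receptor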
[3] = target: Peroxisome proliferator-activated receptor gamma/Nuclear receptor coactivator 3 (Homo sapiens, UniProt P37231); format: functional;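 also: agonist potency for raising coactivator recruitment to the receptor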
Sequence of Peroxisome proliferator-activated receptor gamma/Nuclear receptor coactivator 3 (P37231 whole entry): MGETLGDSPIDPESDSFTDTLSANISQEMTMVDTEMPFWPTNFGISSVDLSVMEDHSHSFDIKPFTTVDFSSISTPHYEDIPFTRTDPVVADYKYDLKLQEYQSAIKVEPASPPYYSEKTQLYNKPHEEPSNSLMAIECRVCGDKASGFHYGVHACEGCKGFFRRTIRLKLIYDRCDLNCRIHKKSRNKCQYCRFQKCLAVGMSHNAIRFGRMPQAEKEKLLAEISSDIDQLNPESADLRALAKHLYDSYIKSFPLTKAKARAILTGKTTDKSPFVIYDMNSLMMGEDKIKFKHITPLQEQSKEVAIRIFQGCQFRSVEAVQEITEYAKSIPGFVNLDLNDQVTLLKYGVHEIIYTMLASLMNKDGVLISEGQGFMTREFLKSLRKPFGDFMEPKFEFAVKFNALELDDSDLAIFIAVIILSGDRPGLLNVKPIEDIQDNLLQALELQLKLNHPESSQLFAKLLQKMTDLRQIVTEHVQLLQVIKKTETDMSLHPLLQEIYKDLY
Sequence of Peroxisome proliferator-activated receptor gamma/Nuclear receptor coactivator 3 (Q9Y6Q9 whole entry, further chain): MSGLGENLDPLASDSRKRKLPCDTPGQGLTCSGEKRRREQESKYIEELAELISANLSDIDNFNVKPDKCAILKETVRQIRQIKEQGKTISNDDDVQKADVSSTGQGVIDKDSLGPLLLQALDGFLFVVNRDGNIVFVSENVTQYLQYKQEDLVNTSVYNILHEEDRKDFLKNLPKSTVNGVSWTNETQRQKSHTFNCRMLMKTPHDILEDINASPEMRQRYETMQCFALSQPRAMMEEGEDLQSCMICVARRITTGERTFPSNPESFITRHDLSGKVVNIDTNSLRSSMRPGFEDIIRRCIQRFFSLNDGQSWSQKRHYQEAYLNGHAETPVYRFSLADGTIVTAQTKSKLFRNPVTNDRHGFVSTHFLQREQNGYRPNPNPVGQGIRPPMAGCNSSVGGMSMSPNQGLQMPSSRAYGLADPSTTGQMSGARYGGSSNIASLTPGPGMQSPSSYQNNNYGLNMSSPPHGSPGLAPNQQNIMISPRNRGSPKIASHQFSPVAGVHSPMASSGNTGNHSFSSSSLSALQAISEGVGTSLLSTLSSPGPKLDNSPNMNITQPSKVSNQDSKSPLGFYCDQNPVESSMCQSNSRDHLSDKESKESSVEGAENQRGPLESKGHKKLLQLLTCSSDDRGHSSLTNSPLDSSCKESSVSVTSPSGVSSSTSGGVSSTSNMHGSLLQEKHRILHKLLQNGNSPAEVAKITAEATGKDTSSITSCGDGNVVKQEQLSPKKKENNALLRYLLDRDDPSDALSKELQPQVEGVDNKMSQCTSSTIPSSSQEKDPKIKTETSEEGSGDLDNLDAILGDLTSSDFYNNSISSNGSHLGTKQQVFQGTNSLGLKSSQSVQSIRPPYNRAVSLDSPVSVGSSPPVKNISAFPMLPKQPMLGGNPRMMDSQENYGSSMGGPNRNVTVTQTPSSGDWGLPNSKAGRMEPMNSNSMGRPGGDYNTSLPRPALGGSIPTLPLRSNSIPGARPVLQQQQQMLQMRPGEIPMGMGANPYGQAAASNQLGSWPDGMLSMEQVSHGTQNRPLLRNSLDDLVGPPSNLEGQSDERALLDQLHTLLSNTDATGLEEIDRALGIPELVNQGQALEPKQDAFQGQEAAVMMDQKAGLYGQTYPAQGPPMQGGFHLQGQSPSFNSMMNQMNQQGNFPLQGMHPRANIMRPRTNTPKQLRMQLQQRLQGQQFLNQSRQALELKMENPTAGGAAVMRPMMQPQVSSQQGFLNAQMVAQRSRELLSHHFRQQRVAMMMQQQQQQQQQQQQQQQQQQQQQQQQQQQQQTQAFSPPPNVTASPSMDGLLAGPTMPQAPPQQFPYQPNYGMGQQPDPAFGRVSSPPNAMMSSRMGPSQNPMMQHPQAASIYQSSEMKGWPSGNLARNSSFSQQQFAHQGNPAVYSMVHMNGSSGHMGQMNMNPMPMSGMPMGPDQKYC

[4] = target: Peroxisome proliferator-activated receptor gamma/Nuclear receptor coactivator 1 (Homo sapiens, UniProt P37231); format: functional;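 also: agonist potency as compounds enhance coactivator SRC-1 recruitment to PPARgamma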
Sequence of Peroxisome proliferator-activated receptor gamma/Nuclear receptor coactivator 1 (P37231 whole entry): as the sequence (P37231 whole entry) above
Sequence of Peroxisome proliferator-activated receptor gamma/Nuclear receptor coactivator 1 (Q15788 whole entry, further chain): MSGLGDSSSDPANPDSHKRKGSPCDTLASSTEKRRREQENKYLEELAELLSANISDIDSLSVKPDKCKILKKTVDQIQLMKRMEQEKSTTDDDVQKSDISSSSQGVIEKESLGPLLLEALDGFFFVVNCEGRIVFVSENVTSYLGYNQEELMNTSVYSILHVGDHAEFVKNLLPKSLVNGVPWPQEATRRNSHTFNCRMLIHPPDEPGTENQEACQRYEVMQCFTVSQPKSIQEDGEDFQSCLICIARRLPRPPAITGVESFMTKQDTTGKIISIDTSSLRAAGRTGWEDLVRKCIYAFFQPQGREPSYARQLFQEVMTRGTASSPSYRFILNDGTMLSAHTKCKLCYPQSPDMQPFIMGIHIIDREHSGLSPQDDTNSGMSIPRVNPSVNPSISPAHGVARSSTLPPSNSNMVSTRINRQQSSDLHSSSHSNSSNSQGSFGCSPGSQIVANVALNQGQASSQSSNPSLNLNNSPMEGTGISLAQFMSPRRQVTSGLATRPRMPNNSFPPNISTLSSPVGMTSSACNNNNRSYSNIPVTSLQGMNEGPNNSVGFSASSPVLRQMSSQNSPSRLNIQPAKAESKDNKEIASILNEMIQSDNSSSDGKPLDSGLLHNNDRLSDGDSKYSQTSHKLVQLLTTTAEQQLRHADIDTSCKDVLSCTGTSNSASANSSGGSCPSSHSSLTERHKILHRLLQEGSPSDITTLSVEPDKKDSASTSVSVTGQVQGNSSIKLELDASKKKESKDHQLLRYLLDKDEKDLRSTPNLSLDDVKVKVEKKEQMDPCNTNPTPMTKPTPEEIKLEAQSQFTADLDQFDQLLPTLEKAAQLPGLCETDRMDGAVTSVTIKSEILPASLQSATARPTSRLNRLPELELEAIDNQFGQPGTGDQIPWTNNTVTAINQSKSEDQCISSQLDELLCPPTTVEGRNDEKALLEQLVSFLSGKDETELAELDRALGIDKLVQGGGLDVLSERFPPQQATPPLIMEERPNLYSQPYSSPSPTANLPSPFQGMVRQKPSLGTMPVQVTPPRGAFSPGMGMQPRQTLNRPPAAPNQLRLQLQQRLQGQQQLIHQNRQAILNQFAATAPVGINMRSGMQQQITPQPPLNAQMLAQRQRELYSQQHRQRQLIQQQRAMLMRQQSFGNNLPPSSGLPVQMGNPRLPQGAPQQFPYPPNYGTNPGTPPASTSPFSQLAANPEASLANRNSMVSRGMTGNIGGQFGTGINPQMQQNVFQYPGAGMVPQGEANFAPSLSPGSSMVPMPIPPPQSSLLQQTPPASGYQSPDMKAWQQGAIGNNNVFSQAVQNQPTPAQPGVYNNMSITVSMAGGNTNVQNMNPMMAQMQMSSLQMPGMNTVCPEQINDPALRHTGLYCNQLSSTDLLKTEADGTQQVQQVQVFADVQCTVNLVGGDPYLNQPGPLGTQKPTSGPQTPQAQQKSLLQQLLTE

[5] = cells; format: functional, cell-based; remark: listed apart in the source
[6] = target: Voltage-dependent T-type calcium channel subunit alpha-1H (Homo sapiens, UniProt O95180); format: functional;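 also: channel activity triggered by adding a high calcium stimulation buffer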
[7] = target: T1, Coagulation factor XII (Homo sapiens, UniProt P00748); format: functional;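 also: activated factor XIIa alpha cleaving a fluorogenic AMC peptide substrate; inhibitor potency from loss of enzyme activity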
T1 sequence (P00748 whole entry): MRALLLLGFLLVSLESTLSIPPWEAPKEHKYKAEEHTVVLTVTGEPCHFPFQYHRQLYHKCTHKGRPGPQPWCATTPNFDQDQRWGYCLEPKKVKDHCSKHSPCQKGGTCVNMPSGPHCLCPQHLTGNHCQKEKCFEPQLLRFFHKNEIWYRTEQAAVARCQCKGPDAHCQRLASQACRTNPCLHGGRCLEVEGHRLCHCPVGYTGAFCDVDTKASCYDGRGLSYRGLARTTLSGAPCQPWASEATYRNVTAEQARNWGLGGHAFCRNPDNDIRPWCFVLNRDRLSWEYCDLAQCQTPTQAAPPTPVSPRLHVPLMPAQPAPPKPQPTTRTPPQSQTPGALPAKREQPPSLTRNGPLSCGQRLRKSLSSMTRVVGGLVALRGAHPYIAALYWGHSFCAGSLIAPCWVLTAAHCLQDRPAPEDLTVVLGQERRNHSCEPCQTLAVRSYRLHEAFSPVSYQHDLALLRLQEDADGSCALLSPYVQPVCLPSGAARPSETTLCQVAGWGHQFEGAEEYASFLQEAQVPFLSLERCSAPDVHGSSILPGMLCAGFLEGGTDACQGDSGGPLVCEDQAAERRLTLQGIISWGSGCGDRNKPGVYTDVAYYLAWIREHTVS

[8] = target: Estrogen receptor beta (Homo sapiens, UniProt Q92731); test: blockers of SRC-3 recruitment to ERβ – biochemical, ELISA, streptavidin-HRP readout, orthogonal assay, confirmation (AID 1060)
[9] = Trypanosoma cruzi growth suppression in host cells – NIH3T3 host cells, beta-gal luminescence, confirmation (AID 2044); format: functional, cell-based;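 also: intracellular parasites grown in NIH/3T3 mouse fibroblasts as host cells; luminescent beta-galactosidase reporter signal from transgenic T. cruzi replicating inside host cells; inhibitors lower the luminescence signal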
[10] = NIH3T3 cell viability loss – ATP luminescence, mouse fibroblasts, counter-screen, dose response (AID 2010); format: functional, cell-based;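 also: cells exposed to compound for about 90 hours before reading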
[11] = HEK-293T viability loss after treatment – luminescence, T-cell screen hits, cytotoxicity control for TCR NF-kB inhibitor project, dose response (AID 489026); format: functional, cell-based;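 also: cells exposed to compound about 14 hours before the viability readout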
[12] = tested on: INS1; test: INS-1E survival protection against cytokine death – cell-based, luminescence, retest, dose response (AID 449756); format: functional; conditions: Rattus norvegicus;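 also: cell death triggered by IL-1 beta plus TNF-alpha plus IFN-gamma mixture; protective hits raise ATP signal compared with cytokine alone wells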
[13] = alpha-synuclein stem-loop luciferase translation blockers – H4 neuroglioma cells, luminescence, confirmation (AID 1988); format: functional, cell-based
[14] = target: T2, COUP transcription factor 2 (Homo sapiens, UniProt P24468); test: Luminescence-based cell-based high throughput dose response assay to identify inhibitors of COUP-TFII (NR2F2).; format: functional;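 also: HEK293 cells transiently cotransfected with COUP-TFII expression vector and reporter; luciferase reporter luminescence driven by COUP-TFII from the pX2-168 reporter plasmid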
T2 sequence (P24468 whole entry): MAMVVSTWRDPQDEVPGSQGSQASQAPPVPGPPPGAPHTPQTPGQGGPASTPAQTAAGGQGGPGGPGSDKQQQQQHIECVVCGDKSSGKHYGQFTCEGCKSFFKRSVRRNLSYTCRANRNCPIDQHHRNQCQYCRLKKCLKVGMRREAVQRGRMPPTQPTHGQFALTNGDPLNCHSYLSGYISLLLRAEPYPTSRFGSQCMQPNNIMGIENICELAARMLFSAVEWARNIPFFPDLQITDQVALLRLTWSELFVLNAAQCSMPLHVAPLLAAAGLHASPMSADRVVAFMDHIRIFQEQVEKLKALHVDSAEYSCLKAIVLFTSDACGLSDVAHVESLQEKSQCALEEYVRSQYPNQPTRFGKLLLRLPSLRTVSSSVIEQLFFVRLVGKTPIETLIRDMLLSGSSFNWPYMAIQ

[15] = luciferase reporter signal suppression in cells – H4 neuroglioma cells, luminescence, dose response (AID 1990); format: functional, cell-based
[16] = Luminescence Cell-Based Dose Response HTS to Identify Inhibitors of 5'UTR Stem-Loop Driven Prion Protein mRNA Translation in H4 Neuroglioblastoma Cells. [Related pubchem assays: 1827 (Project Summary), 1813 (Primary HTS)]; format: functional
[17] = target: DNA dC->dU-editing enzyme APOBEC-3G (Homo sapiens, UniProt Q9HC16); test: Dose Response confirmation of small molecule APOBEC3G DNA Deaminase Inhibitors via a fluorescence-based single-stranded DNA deaminase assay. [Related pubchem assays (depositor defined):AID493012, AID493028]; format: functional
Sequence of DNA dC->dU-editing enzyme APOBEC-3G (Q9HC16 whole entry): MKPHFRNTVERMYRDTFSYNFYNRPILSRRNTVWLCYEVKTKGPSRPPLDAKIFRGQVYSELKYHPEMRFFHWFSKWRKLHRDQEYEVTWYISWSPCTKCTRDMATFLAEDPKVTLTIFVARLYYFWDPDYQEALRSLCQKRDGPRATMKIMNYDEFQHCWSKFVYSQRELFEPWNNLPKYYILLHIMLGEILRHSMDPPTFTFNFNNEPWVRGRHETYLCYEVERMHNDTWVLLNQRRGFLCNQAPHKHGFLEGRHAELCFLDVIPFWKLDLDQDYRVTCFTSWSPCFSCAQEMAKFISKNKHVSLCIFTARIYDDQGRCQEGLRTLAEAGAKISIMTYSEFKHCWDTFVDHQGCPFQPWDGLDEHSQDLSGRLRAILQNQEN

[18] = tested on: HEK293; test: cells; conditions: Homo sapiens
[19] = tested on: HEK293; test: cells; conditions: Homo sapiens; remark: listed apart in the source
[20] = target: T3, Caspase-6 (Homo sapiens, UniProt P55212); test: inhibition of CASP6 peptide cleavage – biochemical, VEID-R110 fluorescence, cherry-pick, dose response (AID 720632)
T3 sequence (P55212 whole entry): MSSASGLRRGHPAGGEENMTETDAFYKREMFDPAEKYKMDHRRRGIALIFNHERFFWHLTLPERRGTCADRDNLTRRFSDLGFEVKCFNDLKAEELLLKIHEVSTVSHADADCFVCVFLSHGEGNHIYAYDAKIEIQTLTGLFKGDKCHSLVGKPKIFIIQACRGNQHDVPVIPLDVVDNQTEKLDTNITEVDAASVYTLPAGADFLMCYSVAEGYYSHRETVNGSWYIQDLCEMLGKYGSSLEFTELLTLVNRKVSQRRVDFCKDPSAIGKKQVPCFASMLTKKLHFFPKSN

[21] = target: Voltage-gated N-type calcium channel alpha-1B subunit/Amyloid beta A4 precursor protein-binding family A member 1 (Homo sapiens, UniProt Q00975+Q02410); test: disruptors of Mint-PDZ/N-type channel peptide interaction – biochemical, HTRF, set 2, SAR follow-up (AID 434980); format: functional
[22] = OVCAR8 cell viability loss – plate reader, dry powder samples, PAX8 project, dose response (AID 743197); format: functional, cell-based; conditions: OVCAR-8
[23] = target: Paired box protein Pax-8 (Homo sapiens, UniProt Q06710); test: PAX8 transcriptional activity inhibition in RMG-I – RMG-I cells, luciferase, cherry-pick, dose response (AID 687027); format: functional, cell-based;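 also: luciferase reporter driven by Pax8 target thyroperoxidase promoter measured by SteadyGlo luminescence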
Sequence of Paired box protein Pax-8 (Q06710 whole entry): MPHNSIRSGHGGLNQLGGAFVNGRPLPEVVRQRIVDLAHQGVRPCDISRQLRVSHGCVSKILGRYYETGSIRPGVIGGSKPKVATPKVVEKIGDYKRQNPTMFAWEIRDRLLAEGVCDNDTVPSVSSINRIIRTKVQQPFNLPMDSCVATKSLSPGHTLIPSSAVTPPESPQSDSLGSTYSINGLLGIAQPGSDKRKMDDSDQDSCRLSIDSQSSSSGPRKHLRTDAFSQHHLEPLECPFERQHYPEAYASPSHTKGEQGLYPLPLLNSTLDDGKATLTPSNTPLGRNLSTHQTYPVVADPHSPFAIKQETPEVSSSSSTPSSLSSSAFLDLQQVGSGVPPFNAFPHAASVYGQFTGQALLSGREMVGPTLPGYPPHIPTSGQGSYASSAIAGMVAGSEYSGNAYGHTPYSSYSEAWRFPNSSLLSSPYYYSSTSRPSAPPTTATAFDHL

[24] = OVCAR-3 cell viability loss – plate reader, dry powder samples, PAX8 inhibitor project, dose response (AID 743044); format: functional, cell-based

Question: With COc1cc(C2CC(=O)N3CN(Cc4ccccc4)CSC3=C2C#N)ccc1OCc1ccccc1 (centres undefined) as the molecule, how does the EC50 [1] read?
Answer: > 350 µM (not active)

Question: And the EC50 [2]?
Answer: > 79.4 µM (not active)

Question: What about the EC50 [3] of the same molecule?
Answer: > 79.4 µM (not active)

Question: What about the EC50 [4] of the same molecule?
Answer: > 79.4 µM (not active)

Question: What about the EC50 [5] of the same molecule?
Answer: 40.3 µM (active)

Question: Which EC50 [6] does the source give for CC(C)(C)n1ncc2c(=O)n(CC(=O)Nc3ccc(Cl)cc3)cnc21 here?
Answer: 4.08 µM (active)

Question: With CCOc1ccc(N(CC(=O)Nc2cc(C)ccc2C)S(=O)(=O)c2c(C)nc(O)nc2O)cc1 as the molecule, how does the IC50 [7] read?
Answer: > 50 µM (inactive)

Question: Which results are given for N#Cc1cc2c(nc1SCc1ccccc1)CCC2?
Answer: EC50 [2]: 45.2 µM (not active); IC50 [8]: 0.0254 µM (not active); EC50 [3]: 56.6 µM (not active); EC50 [4]: 41 µM (not active)

Question: Which IC50 [7] does the source give for CCC1=NN(C(=O)Cc2ccc([N+](=O)[O-])cc2)C(O)(C(F)(F)F)C1 (centres undefined) here?
Answer: > 50 µM (inactive)

Question: With CCO/C(O)=C1\C(C)=NC(=S)N(C(C)=O)C1c1ccc(OC)c(OC)c1 (centres undefined) as the molecule, how does the IC50 [7] read?
Answer: > 50 µM (inactive)

Question: Which results are given for N=c1ccn(CC(=O)c2ccc(-c3ccccc3)cc2)cc1?
Answer: EC50 [9]: 2.01 µM (active); EC50 [10]: > 60 µM (not active); IC50 [11]: > 80 µM (inactive); AC50 [12]: 1.46 µM (active); EC50 [13]: 7.33 µM (active); IC50 [14]: 9.15 µM (active); EC50 [15]: 9.17 µM (active); EC50 [16]: 12.3 µM (active)

Question: With Nc1ccccc1SC(C[N+](=O)[O-])c1ccccc1 (centres undefined) as the molecule, how does the IC50 [17] read?
Answer: 28.2 µM (active)

Question: For O=C(CSc1nnc(CNC(=O)c2cccs2)o1)Nc1cccc(C(F)(F)F)c1, which EC50 [6] is on record?
Answer: 4.46 µM (active)

Question: For COc1ccc(C2C=C(C34CC5CC(CC(C5)C3)C4)N=C(S)N2)cc1OC (centres undefined), which EC50 [18] is on record?
Answer: > 59.6 µM (inactive)

Question: And the EC50 [19]?
Answer: > 59.6 µM (inactive)

Question: With O=C(O)c1cc([N+](=O)[O-])cc2c1C=Cc1ccccc1O2 as the molecule, how does the AC50 [20] read?
Answer: 37.5 µM (active)

Question: For CCC(C)NC(=O)CSc1ncnc2sccc12 (centres undefined), which IC50 [7] is on record?
Answer: > 50 µM (inactive)

Question: Which results are given for CCOC(=O)C1=NN(c2cccc(Cl)c2)C2=NC(C)=C(C(=O)OC)C(c3cccs3)N12 (centres undefined)?
Answer: EC50 [2]: > 79.4 µM (not active); EC50 [3]: > 79.4 µM (not active); EC50 [4]: > 79.4 µM (not active)

Question: For CC(C)(C)c1ccc(CNC(=O)c2cc(-c3ccco3)nc3ccccc23)cc1, which IC50 [21] is on record?
Answer: 39.5 µM (active)

Question: Which IC50 [21] does the source give for O=C(N[C@@H]1C[C@H]1c1ccccc1)c1cc(-c2ccco2)nc2ccccc12 here?
Answer: 46.4 µM (active)

Question: For C[C@@H]1CCCCO[C@@H](CN(C)C(=O)Nc2ccc(C(F)(F)F)cc2)[C@H](C)CN([C@H](C)CO)C(=O)c2cc(NS(=O)(=O)c3ccc(Cl)cc3)ccc2O1, which AC50 [22] is on record?
Answer: 32 µM (active)

Question: And the AC50 [23]?
Answer: 3.25 µM (active)

Question: And the AC50 [24]?
Answer: 27.8 µM (active)

Question: Which results are given for Cc1noc(C)c1S(=O)(=O)Nc1ccc2c(c1)C(=O)N([C@H](C)CO)C[C@H](C)[C@@H](CN(C)C(=O)Nc1ccc(C(F)(F)F)cc1)OCCCC[C@H](C)O2?
Answer: AC50 [22]: > 70 µM (inactive); AC50 [23]: 9.4 µM (active); AC50 [24]: < 0.26 µM (active)

Question: Which IC50 [17] does the source give for COc1cc(/C=N/n2c(S)nnc2-c2ccccc2)cc(OC)c1O here?
Answer: > 100 µM (inactive)
